Laboratory results taken from patent US11566024B2 (CHANGZHOU QIANHONG BIOPHARMA CO., LTD, priority 2018, dated 2023).
One block for each compound: values may come before it.

Legend:
Hygroscopicity (DVS) = assay type: physicochemical; details: for hygroscopicity class (in words) / hygroscopic weight gain: at 80% humidity; for hygroscopic weight gain: tartrate; for hygroscopicity (in words): DVS experiments on the Active Pharmaceutical Ingredients
[1] = Equilibrium solubility of crystal forms under simulated in vivo conditions; assay type: physicochemical; details: simulated in vivo conditions (pH=2.0, 4.6, 6.8)
[2] = Conversion experiments between the crystal forms; assay type: physicochemical; details: conversion between Crystal Form A and Form B
physchem = details: for solubility: 25 °C, thermodynamic from solid
From the text: Perform scale-up experiments on the above six salts to determine solubilities of various salts in different pH buffers and deionized water, and compare with the free base.

[3] = Preliminary stability tests (high temperature, high humidity, illumination); assay type: physicochemical; details: high humidity, and illumination, versus free base and other salt forms
From the text: However, unlike phosphates and the like, the above increase in solubility is not accompanied by a significant increase in hygroscopicity. […] The above and other advantages will be favorable for overcoming various challenges faced by the development of pharmaceutical products containing selective CDK 9 kinase inhibitors of Formula I.

hygroscopicity class (in words) (Hygroscopicity (DVS)): non-hygroscopic
hygroscopic weight gain (Hygroscopicity (DVS)): 0.22%
equilibrium solubility (in words) [1]: greater than that of Form B
crystal form stability (in words) [2]: more stable crystal form
SMILES: CNc1nc(C)c(-c2nc(Nc3cccc(S(N)(=O)=O)c3)ncc2F)s1.O=C(O)C(O)C(O)C(=O)O [Form A, 3-(5-fluoro-4-(4-methyl-2-(methylamino)thiazol-5-yl)pyrimidin-2-ylamino)-benzenesulfonamide tartrate]

solubility (physchem; pH 2, aqueous buffer): 4300 µg/mL
solubility (physchem; pH 4.5, aqueous buffer): 7.5 µg/mL
solubility (physchem; pH 6.8, aqueous buffer): 3.7 µg/mL
solubility (physchem; water): 418 µg/mL
solubility compared to the raw materials (in words) (physchem; pH 2.0 buffer and deionized water, HPLC): significantly increased
hygroscopicity (in words) (Hygroscopicity (DVS)): lowest hygroscopicity
stability (in words) [3]: better stability
SMILES: CNc1nc(C)c(-c2nc(Nc3cccc(S(N)(=O)=O)c3)ncc2F)s1.O=C(O)C(O)C(O)C(=O)O [Tartrate, 3-(5-fluoro-4-(4-methyl-2-(methylamino)thiazol-5-yl)pyrimidin-2-ylamino)-benzenesulfonamide tartrate]

hygroscopicity (in words) (Hygroscopicity (DVS)): very low hygroscopicity
SMILES: CNc1nc(C)c(-c2nc(Nc3cccc(S(N)(=O)=O)c3)ncc2F)s1 [LS007, 3-(5-fluoro-4-(4-methyl-2-(methylamino)thiazol-5-yl)pyrimidin-2-ylamino)-benzenesulfonamide]

hygroscopicity (in words) (Hygroscopicity (DVS)): highest hygroscopicity
water absorbed (Hygroscopicity (DVS); DVS, 60% RH): 11.71%
SMILES: CNc1nc(C)c(-c2nc(Nc3cccc(S(N)(=O)=O)c3)ncc2F)s1.O=P(O)(O)O [Phosphate]

hygroscopicity class (in words) (Hygroscopicity (DVS)): non-hygroscopic
hygroscopic weight gain (Hygroscopicity (DVS)): 0.11%
SMILES: CNc1nc(C)c(-c2nc(Nc3cccc(S(N)(=O)=O)c3)ncc2F)s1.O=C(O)C(O)C(O)C(=O)O [Form B, 3-(5-fluoro-4-(4-methyl-2-(methylamino)thiazol-5-yl)pyrimidin-2-ylamino)-benzenesulfonamide tartrate]
